Data from ChEMBL document CHEMBL3407491, “Synthesis, characterization and in vitro photodynamic antimicrobial activity of basic amino acid-porphyrin conjugates” (Eur J Med Chem, 2015).
Values after ≈ are worked out from the molar mass of the structure shown. Active and inactive are the calls of the source. The calls are words filed in the database; no cut-off is given here.

Tests used:
[1] = test system: Escherichia coli; test: Antibacterial activity against Escherichia coli ATCC 25922 incubated in dark for 30 mins followed by exposure to light fluences at 650 nm and 6 J/cm2 and then incubated overnight measured after 24 hrs; format: functional; settings: ATCC 25922, light or radiation study
[2] = test system: Pseudomonas aeruginosa; test: Antibacterial activity against Pseudomonas aeruginosa ATCC 27853 incubated in dark for 30 mins measured after 24 hrs; format: functional
[3] = test system: Pseudomonas aeruginosa; test: Antibacterial activity against Pseudomonas aeruginosa ATCC 27853 incubated in dark for 30 mins followed by exposure to light fluences at 650 nm and 6 J/cm2 and then incubated overnight measured after 24 hrs; format: functional; settings: ATCC 27853, light or radiation study
[4] = test system: Pseudomonas aeruginosa; test: Drug uptake in Pseudomonas aeruginosa ATCC 27853 at 12.5 uM by confocal laser scanning microscopy; format: ADME, organism-based; settings: in vivo
[5] = test system: Staphylococcus aureus; test: Antibacterial activity against methicillin-resistant Staphylococcus aureus incubated in dark for 30 mins followed by exposure to light fluences at 650 nm and 6 J/cm2 and then incubated overnight measured after 24 hrs; format: functional; settings: light or radiation study
[6] = test system: Escherichia coli; test: Bactericidal activity against Escherichia coli ATCC 25922 incubated in dark for 30 mins followed by exposure to light fluences at 650 nm and 6 J/cm2 and then incubated overnight followed by further incubation on LB agar plates for another 24 hrs; format: functional; settings: ATCC 25922, light or radiation study
[7] = test system: Escherichia coli; test: Antibacterial activity against Escherichia coli ATCC 25922 incubated in dark for 30 mins measured after 24 hrs; format: functional
[8] = Photostability at 2 x 10^-5 mol/L exposed to 4.2 mW/cm2 light energy density assessed as change in absorption spectra after 30 mins post irradiation; format: physicochemical; settings: 0.5 h, 20 µM
[9] = test system: Escherichia coli; test: Antibacterial activity against Escherichia coli ATCC 25922 incubated in dark for 30 mins and grown for 24 hrs followed by further incubation on LB agar plates for another 24 hrs; format: functional
[10] = test system: Staphylococcus aureus; test: Antibacterial activity against methicillin-resistant Staphylococcus aureus incubated in dark for 30 mins and grown for 24 hrs followed by further incubation on LB agar plates for another 24 hrs; format: functional
[11] = test system: Staphylococcus aureus; test: Bactericidal activity against methicillin-resistant Staphylococcus aureus incubated in dark for 30 mins followed by exposure to light fluences at 650 nm and 6 J/cm2 and then incubated overnight followed by further incubation on LB agar plates for another 24 hrs; format: functional; settings: light or radiation study
[12] = test system: Staphylococcus aureus; test: Drug uptake in methicillin-resistant Staphylococcus aureus at 12.5 uM by confocal laser scanning microscopy; format: ADME, organism-based; settings: in vivo
[13] = test system: Staphylococcus aureus; test: Antibacterial activity against methicillin-resistant Staphylococcus aureus incubated in dark for 30 mins measured after 24 hrs; format: functional
[14] = Singlet oxygen generation of the compound exposed to 4.2 mW/cm2 light energy density assessed as singlet oxygen quantum yield measured at 410 nm in 10 seconds intervals of irradiation at 0.2 uM by DPBF scavenger based assay
[15] = Octanol water partition coefficient, log P of the compound by reverse-phase thin-layer chromatography; format: physicochemical
[16] = test system: Escherichia coli; test: Drug uptake in Escherichia coli ATCC 25922 at 12.5 uM by confocal laser scanning microscopy; format: ADME, organism-based; settings: in vivo
[17] = test system: Pseudomonas aeruginosa; test: Bactericidal activity against Pseudomonas aeruginosa ATCC 27853 incubated in dark for 30 mins followed by exposure to light fluences at 650 nm and 6 J/cm2 and then incubated overnight followed by further incubation on LB agar plates for another 24 hrs; format: functional; settings: ATCC 27853, light or radiation study
[18] = test system: Pseudomonas aeruginosa; test: Antibacterial activity against Pseudomonas aeruginosa ATCC 27853 incubated in dark for 30 mins and grown for 24 hrs followed by further incubation on LB agar plates for another 24 hrs; format: functional
[19] = test system: Escherichia coli; test: Antibacterial activity against Escherichia coli ATCC 25922 at 3.91 uM to 62.50 uM incubated in dark for 30 mins followed by exposure to light fluences at 650 nm and 6 J/cm2 and then incubated overnight measured after 24 hrs; format: functional, organism-based
[20] = test system: Escherichia coli; test: Antibacterial activity against Escherichia coli ATCC 25922 at 0.49 uM to 7.8 uM incubated in dark for 30 mins followed by exposure to light fluences at 650 nm and 6 J/cm2 and then incubated overnight measured after 24 hrs; format: functional, organism-based
[21] = test system: Pseudomonas aeruginosa; test: Antibacterial activity against Pseudomonas aeruginosa ATCC 27853 at 3.91 uM to 62.50 uM incubated in dark for 30 mins followed by exposure to light fluences at 650 nm and 6 J/cm2 and then incubated overnight measured after 24 hrs; format: functional, organism-based
[22] = test system: Staphylococcus aureus; test: Antibacterial activity against methicillin-resistant Staphylococcus aureus at 0.49 uM to 7.8 uM incubated in dark for 30 mins followed by exposure to light fluences at 650 nm and 6 J/cm2 and then incubated overnight measured after 24 hrs; format: functional, organism-based
[23] = test system: Pseudomonas aeruginosa; test: Antibacterial activity against Pseudomonas aeruginosa ATCC 27853 at 0.49 uM to 7.8 uM incubated in dark for 30 mins followed by exposure to light fluences at 650 nm and 6 J/cm2 and then incubated overnight measured after 24 hrs; format: functional, organism-based

SMILES | MIC [1] [µM] | MIC [2] [µM] | MIC [3] [µM] | MIC [5] [µM] | MBC [6] [µM] | MIC [7] [µM] | Activity [8] [%] | MBC [9] [µM] | MBC [10] [µM] | MBC [11] [µM] | MIC [13] [µM] | Activity [14] | logP [15] | MBC [17] [µM] | MBC [18] [µM] | Activity [19] | Activity [20] | Activity [21] | Activity [22] | Activity [23] | other results
NCCCC[C@H](N)C(=O)Nc1ccc(-c2c3nc(c(-c4ccccc4)c4ccc([nH]4)c(-c4ccccc4)c4nc(c(-c5ccccc5)c5ccc2[nH]5)C=C4)C=C3)cc1 | 500 (≈ 379 µg/mL) | 500 (≈ 379 µg/mL) | 250 (≈ 189 µg/mL) | 500 (≈ 379 µg/mL) | > 500 | > 500 | < 20 | > 500 | > 500 | > 500 | > 500 | 0.83 | 1.69 | 500 (≈ 379 µg/mL) | > 500 |  |  |  |  |  | Drug uptake [4]: Not Active; Drug uptake [12]: Not Active; Drug uptake [16]: Not Active
Nc1ccc(-c2c3nc(c(-c4ccccc4)c4ccc([nH]4)c(-c4ccc(N)cc4)c4nc(c(-c5ccccc5)c5ccc2[nH]5)C=C4)C=C3)cc1 | 125 (≈ 80.6 µg/mL) | 125 (≈ 80.6 µg/mL) | 125 (≈ 80.6 µg/mL) | 62.5 (≈ 40.3 µg/mL) | 500 (≈ 322 µg/mL) | > 500 | < 20 | > 500 | 125 (≈ 80.6 µg/mL) | 125 (≈ 80.6 µg/mL) | 62.5 (≈ 40.3 µg/mL) |  |  | 250 (≈ 161 µg/mL) | 250 (≈ 161 µg/mL) | inactive | inactive | inactive | inactive | inactive | 
N=C(N)NCCC[C@H](N)C(=O)Nc1ccc(-c2c3nc(c(-c4ccccc4)c4ccc([nH]4)c(-c4ccccc4)c4nc(c(-c5ccccc5)c5ccc2[nH]5)C=C4)C=C3)cc1 | 62.5 (≈ 49.1 µg/mL) | 125 (≈ 98.2 µg/mL) | 62.5 (≈ 49.1 µg/mL) | 62.5 (≈ 49.1 µg/mL) | 125 (≈ 98.2 µg/mL) | 62.5 (≈ 49.1 µg/mL) | < 20 | 125 (≈ 98.2 µg/mL) | 250 (≈ 196 µg/mL) | 125 (≈ 98.2 µg/mL) | 125 (≈ 98.2 µg/mL) | 0.71 | 1.45 | 125 (≈ 98.2 µg/mL) | 250 (≈ 196 µg/mL) | inactive | inactive | inactive | inactive | inactive | 
